How the values were obtained:
Type in all cases: in vivo
[1] = tested on: Pcca−/−(A138T) mouse model of propionic acidemia; experiment: Blood ammonia levels in mouse model of propionic acidemia; settings: chow with 225 ppm PZ-2891 plus 1000 ppm Pan for 7 days vs 1000 ppm Pan alone; p=0.0032
Procedure: Referring to FIG. 2, a mouse model of propionic acidemia, the Pcca−/−(A138T) (Guensel et al. (2013) Mol. Ther. 21: 1316-1323), was fed chow containing either 1000 ppm pantothenate (Pan) or 225 ppm PZ-2891 plus 1000 ppm Pan for 7 days. Blood was drawn from 6 mice per group and blood ammonia levels were determined using a GM7 Micro-Stat Analyser (Analox Instruments, www.analox.com) and the Analox Blood Ammonia Reagent kit according to the manufacturer's instructions. Statistical analysis was performed using the Students unpaired t-test and p=0.0032.

[2] = tested on: Pcca−/−(A138T) mouse model of propionic acidemia; experiment: Plasma acyl-carnitine levels in Pcca mouse model; settings: chow with 1000 ppm pantothenate plus 75 ppm PZ-3022 from day 21, plasma at 70 days
Procedure: Referring to FIG. 6A and FIG. 6B, a mouse model of propionic acidemia, the Pcca−/−(A138T) (mouse Guensel et al. (2013) Mol. Ther. 21: 1316-23) was fed chow or chow containing 1000 ppm pantothenate plus 75 ppm PZ-3022 beginning at day 21. At 70 days, the plasma was analyzed for the levels of acyl-carnitines.
Referring to FIG. 7, the data in FIG. 5 are presented as the C3:C2 ration of plasma carnitines.

[3] = tested on: Pcca−/−(A138T) mouse model of propionic acidemia; experiment: Total liver CoA levels in Pcca mouse model; settings: chow with 1000 ppm pantothenate plus 75 ppm PZ-3022 from day 21, measured at 70 days
Procedure: Referring to FIG. 4, a mouse model of propionic acidemia, the Pcca−/−(A138T) mouse (Guensel et al. (2013) Mol. Ther. 21: 1316-23) was fed chow or chow containing 1000 ppm pantothenate plus 75 ppm PZ-3022 beginning at day 21. At 70 days, the liver CoA levels were measured.

[4] = tested on: Pcca−/−(A138T) mouse model of propionic acidemia; experiment: Liver CoA, acetyl-CoA and propionyl-CoA levels in Pcca mouse model; settings: chow with 1000 ppm pantothenate plus 75 ppm PZ-3022 from day 21, measured at 70 days
Procedure: Referring to FIG. 5, a mouse model of propionic acidemia, the Pcca−/−(A138T) (mouse Guensel et al. (2013) Mol. Ther. 21: 1316-23) was fed chow or chow containing 1000 ppm pantothenate plus 75 ppm PZ-3022 beginning at day 21. At 70 days, the liver CoA, acetyl-CoA and propionyl-CoA levels were measured. The Pcca mice had lower free CoA, lower acetyl-CoA and very elevated propionyl-CoA compared to wild-type.

Compound	blood ammonia levels [1]	C3:C2 ratio of plasma carnitines [2]	plasma acetyl-carnitine [2]	liver CoA levels (total) [3]	liver acetyl-CoA [4]	liver free CoA [4]	liver propionyl-CoA [4]
CC(C)c1ccc(CC(=O)N2CCN(c3ccc(C#N)nn3)CC2)cc1 [PZ-2891]	Reduction of Blood Ammonia Levels						
N#Cc1ccc(N2CCN(C(=O)Cc3ccc(C4CC4)cc3)CC2)nn1 [PZ-3022]		reduced the highly elevated C3:C2 ratio	elevated acetyl-carnitine	the CoA levels were elevated	elevated free CoA and acetyl-CoA	elevated free CoA	propionyl-CoA was reduced
